Laboratory results as given in patent publication US5486597A, “Tetrapeptide derivatives and analogues” (James Black Foundation Limited, priority 1990, dated 1996).
Non-standard residues stand in square brackets, D forms with d. Residues, ends and D or L forms follow the SMILES beside them. *: point of attachment. Trp(5-F) = N[C@@H](Cc1c[nH]c2ccc(F)cc12)C(=O)O; 2Nal = N[C@@H](Cc1ccc2ccccc2c1)C(=O)O; Boc = CC(C)(C)OC(=O)*

Columns and labels:
Type in all cases: cell-based
[1] = molecular target: T1, cholecystokinin receptors (Cavia porcellus, UniProt Q63931); assay: CCK-antagonist activity in isolated guinea-pig gall-bladder strip preparations; settings: guinea-pig gall-bladder strips; CCK-8 as agonist; test compound incubated for 60 minutes; standard errors less than 5%
T1 construct: Isolated, strip preparations were prepared from gall-bladders removed from male Dunkin-Hartley guinea-pigs; from tissue; host or cells: guinea-pig gall-bladder strips
T1 sequence (Q63931 1-430): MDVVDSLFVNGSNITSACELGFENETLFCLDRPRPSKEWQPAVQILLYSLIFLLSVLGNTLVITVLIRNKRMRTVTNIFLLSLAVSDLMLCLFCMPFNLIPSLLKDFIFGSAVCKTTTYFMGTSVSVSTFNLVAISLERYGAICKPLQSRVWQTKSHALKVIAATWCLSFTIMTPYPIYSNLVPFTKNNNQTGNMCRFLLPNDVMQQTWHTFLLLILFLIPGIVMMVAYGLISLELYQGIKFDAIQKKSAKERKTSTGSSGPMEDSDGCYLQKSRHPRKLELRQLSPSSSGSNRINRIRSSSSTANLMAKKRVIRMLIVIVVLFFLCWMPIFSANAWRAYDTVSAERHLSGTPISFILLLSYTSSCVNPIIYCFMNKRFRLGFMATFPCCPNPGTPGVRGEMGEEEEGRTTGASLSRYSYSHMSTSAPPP
Method in brief: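 Male Dunkin-Hartley guinea-pig gall-bladder strips under 1 g isometric tension in Krebs (0.5 mM Ca²⁺), 37° C, 95% O2/5% CO2, stabilised 90 min. Cumulative CCK-8 concentration-effect curves without and with test compound (60 min preincubation); antagonism expressed as […] by modified competitive analysis.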

gastrin receptor [2] = molecular target: T2, gastrin receptor (Mus musculus, UniProt P56481); assay: mouse stomach assay for gastrin activity (isolated stomach, acid secretion); settings: for pKB mouse stomach / Kb: isolated mouse stomach assay, gastrin antagonism, standard errors less than 5%; for Acid seretion at 10^-5 M test compound, relative to pentagastrin (%): mouse stomach, NS = not significant; for Kb: read-out: pKB mouse stomach (converted)
T2 construct: assayed for gastrin activity using the mouse stomach assay; from tissue; host or cells: isolated mouse stomach
T2 sequence (P56481 1-453): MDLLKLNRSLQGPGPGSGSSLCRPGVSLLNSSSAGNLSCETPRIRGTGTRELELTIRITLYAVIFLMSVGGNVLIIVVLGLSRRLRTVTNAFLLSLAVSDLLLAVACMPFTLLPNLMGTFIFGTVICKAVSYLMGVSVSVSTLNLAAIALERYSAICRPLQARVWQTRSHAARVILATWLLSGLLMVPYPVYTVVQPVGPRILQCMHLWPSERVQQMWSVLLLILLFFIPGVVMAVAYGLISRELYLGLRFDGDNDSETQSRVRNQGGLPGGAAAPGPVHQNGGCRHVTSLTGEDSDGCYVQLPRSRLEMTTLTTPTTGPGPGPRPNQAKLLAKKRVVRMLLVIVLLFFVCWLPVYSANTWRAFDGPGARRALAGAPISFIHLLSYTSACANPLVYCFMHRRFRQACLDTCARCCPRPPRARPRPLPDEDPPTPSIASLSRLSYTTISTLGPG
Protocol: The compounds were assayed for gastrin activity using the mouse stomach assay as described by Black, J. W. and Shankley, N. P., Br. J. Pharmacol., 86, 571-579, (1985), and also in the guinea-pig fundus assay, as follows: […]

gastrin receptor [3] = molecular target: T3, gastrin receptor (Cavia porcellus, UniProt H0VZC5); assay: guinea-pig fundus assay for gastrin activity (stomach muscle strips); settings: 10^-8 M devazepide present, 60 minute equilibration, agonist e.g. pentagastrin, standard errors less than 5%
T3 construct: Strips of muscle (approximately 2.5 cm by 1 cm) are removed from the proximal area of the stomach; from tissue; host or cells: guinea-pig proximal stomach (fundus) muscle strips
T3 sequence (H0VZC5 1-426): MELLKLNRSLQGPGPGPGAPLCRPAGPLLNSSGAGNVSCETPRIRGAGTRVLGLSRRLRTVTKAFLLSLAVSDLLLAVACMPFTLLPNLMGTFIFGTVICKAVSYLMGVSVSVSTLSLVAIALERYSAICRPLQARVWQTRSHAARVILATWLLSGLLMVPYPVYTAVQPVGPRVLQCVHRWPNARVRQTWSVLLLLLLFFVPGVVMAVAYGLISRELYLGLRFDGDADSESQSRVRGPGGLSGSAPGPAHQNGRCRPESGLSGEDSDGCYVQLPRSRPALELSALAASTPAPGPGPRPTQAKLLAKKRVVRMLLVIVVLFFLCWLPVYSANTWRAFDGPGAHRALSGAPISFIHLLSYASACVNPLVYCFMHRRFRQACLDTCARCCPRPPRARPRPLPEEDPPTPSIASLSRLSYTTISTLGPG
Protocol: The compounds were assayed for gastrin activity using the mouse stomach assay as described by Black, J. W. and Shankley, N. P., Br. J. Pharmacol., 86, 571-579, (1985), and also in the guinea-pig fundus assay, as follows:
The stomach is removed from a male Dunkin-Hartley guinea-pig (250-500 g), and Krebs solution is injected through a hypodermic needle under the top stomach muscle layer. The composition (mM) of the Krebs solution is as follows: Na^+ 143, K^+ 5.9, Ca^2+ 2.5, Mg^2+ 1.2, Cl^- 128, H2 PO4^- 2.2, HCO3^- 24.9, SO4^2- 1.2, dextrose 10. Strips of muscle (approximately 2.5 cm by 1 cm) are removed from the proximal area of the stomach (one from each side) and tied with cotton thread to isotonic transducers under an initial loading tension of 0.35 g.
The preparation is immersed in 20 mls of Krebs solution containing 10^-8 M devazepide (25 μl 2×10^-3 M devazepide/100% DMF solution in 5 dm^3 Krebs) and gassed with 95% O2 /5% CO2. The function of the devazepide is to block possible effects at CCK receptors present in the tissue.
The preparation is washed twice over a 60 minute period then 10 mM KCl is added. At 90 minutes, test compounds (ie. potential antagonists) are added and a further 60 minute equilibration period allowed. After this time, cumulative agonist (e.g. pentagastrin) dose-response curves are constructed.

| SMILES | pKB [1] | pKB mouse stomach (gastrin receptor [2]) | Acid seretion at 10^-5 M test compound, relative to pentagastrin (%) (gastrin receptor [2]) | pKB (gastrin receptor [3]) | Kb [1] [nM] | Kb (gastrin receptor [2]) [nM] | Kb (gastrin receptor [3]) [nM] |
| --- | --- | --- | --- | --- | --- | --- | --- |
| CC(C)(C)OC(=O)N[C@@H](Cc1c[nH]c2ccccc12)C(=O)N[C@@H](Cc1ccc2ccccc2c1)C(=O)N[C@@H](CC(=O)O)C(=O)N[C@@H]1CCC[C@H]1c1ccccc1 (single isomer, unassigned; diastereomer 1) [Example 31, N-t-Butyloxycarbonyl-L-tryptophyl-L-3-(2-naphthyl)alanyl-L-aspartyl-trans-2-phenylcyclopentylamide (diastereomer 1)] | 6.5 | 5.0 | 40 | 6.1 |  |  |  |
| CC(C)(C)OC(=O)N[C@@H](Cc1c[nH]c2ccccc12)C(=O)N[C@@H](Cc1ccc2ccccc2c1)C(=O)N[C@@H](CC(=O)O)C(=O)N[C@@H]1CCC[C@@H]1c1ccccc1 (single isomer, unassigned; diastereomer 1) [Example 33, N-t-Butyloxycarbonyl-L-tryptophyl-L-3-(2-naphthyl)alanyl-L-aspartyl-cis-2-phenylcyclopentylamide (diastereomer 1)] | 7.0 | 5.2 |  | 6.2 |  |  |  |
| CC(C)(C)OC(=O)N[C@@H](Cc1c[nH]c2ccccc12)C(=O)N[C@@H](Cc1ccc2ccccc2c1)C(=O)N[C@@H](CC(=O)O)C(=O)N[C@@H]1CCC[C@@H]1c1ccccc1 (single isomer, unassigned; diastereomer 2) [Example 34, N-t-Butyloxycarbonyl-L-tryptophyl-L-3-(2-naphthyl)alanyl-L-aspartyl-cis-2-phenylcyclopentylamide (diastereomer 2)] | 6.9 | 6.5 | 40 | 5.8 |  |  |  |
| CC(C)(C)OC(=O)N[C@@H](Cc1c[nH]c2ccccc12)C(=O)N[C@@H](Cc1ccc2ccccc2c1)C(=O)N[C@@H](CC(=O)O)C(=O)N[C@@H](Cc1ccccc1)C(N)=O [Example 1, N-t-Butyloxycarbonyl-L-tryptophyl-L-3-(2-naphthyl)alanyl-L-aspartyl-L-phenylalaninamide] (Boc-W[2Nal]DF-NH2) |  |  | 65 |  | 5010 | 631 | 3160 |
| COc1ccc(C[C@H](NC(=O)[C@H](CC(=O)O)NC(=O)[C@H](Cc2ccc3ccccc3c2)NC(=O)[C@H](Cc2c[nH]c3ccccc23)NC(=O)OC(C)(C)C)C(N)=O)cc1 [Example 7, N-t-Butyloxycarbonyl-L-tryptophyl-L-3-(2-naphthyl)alanyl-L-aspartyl-L-(4-methoxyphenylalanin)amide] (Boc-W[2Nal]DY(Me)-NH2) | 5.8 | 5.7 |  | 5.3 |  |  |  |
| COc1ccc(CCNC(=O)[C@H](CC(=O)O)NC(=O)[C@H](Cc2ccc3ccccc3c2)NC(=O)[C@H](Cc2c[nH]c3ccccc23)NC(=O)OC(C)(C)C)cc1 [Example 10, N-t-Butyloxycarbonyl-L-tryptophyl-L-3-(2-naphthyl)alanyl-L-aspartyl-(4-methoxy)phenethylamide] | 7.2 | 6.0 |  | 5.9 |  |  |  |
| CC(C)(C)OC(=O)N[C@@H](Cc1c[nH]c2ccc(F)cc12)C(=O)N[C@@H](Cc1ccc2ccccc2c1)C(=O)N[C@@H](CC(=O)O)C(=O)N[C@@H](Cc1ccccc1)C(N)=O [Example 18, N-t-Butyloxycarbonyl-5-fluoro-L-tryptophyl-L-3-(2-naphthyl)alanyl-L-aspartyl-L-phenylalaninamide] (Boc-[Trp(5-F)][2Nal]DF-NH2) |  |  | 54 |  | 631 | 1580 | 1260 |
| COc1ccccc1CCNC(=O)[C@H](CC(=O)O)NC(=O)[C@H](Cc1ccc2ccccc2c1)NC(=O)[C@H](Cc1c[nH]c2ccccc12)NC(=O)OC(C)(C)C [Example 40, N-t-Butyloxycarbonyl-L-tryptophyl-L-3-(2-naphthyl)alanyl-L-aspartyl-2-methoxyphenethylamide] | 7.1 | 5.2 | 22 | 5.8 |  |  |  |
